# Results as given in patent US11352606B2, “Low oxygen tension enhances endothelial fate of human pluripotent stem cells” (THE JOHNS HOPKINS UNIVERSITY, priority 2014, dated 2022).
# System: VEcad and CD31 mRNA expression in EVCs
# Details: DPI days 3-6, 5% O2, after 12 days
# Description: Real-time quantitative RT-PCR. Two-step reverse transcription polymerase chain reaction (RT-PCR) was performed on differentiated and undifferentiated (day 0) hPSCs as previously described in accordance with Applied Biosystems manufacturer instructions (Kusuma et al., The FASEB Journal. 2012; 26:4925-4936). For each primer set (CD34, KDR, CD56, VEcad, CD31, ephrinB2, EphB4, Nrp1, Nrp2), the comparative […] method (Applied Biosystems, Foster City, Calif.) was used to calculate the amplification differences between different samples. The values for experiments were averaged and graphed with standard deviations.
# ROS detection and inhibition. Previously published protocols were followed to detect and inhibit ROS production (Abaci et al., American Journal of Physiology—Cell Physiology. 2011; 301:C431-C440). For ROS detection, the culture media was replaced with 10 μM 2′,7′-dichlorodihydrofluorescein diacetate (H2-DCFDA) (Invitrogen) in PBS and incubated for 30 min at 37° C. Samples were washed with PBS three times prior to imaging. For ROS inhibition, cells were treated with diphenyleneiodonium (DPI) (Sigma-Aldrich) at a concentration of 10 μM.
# DPI-treated cells were maintained in 5% O2 conditions for the second six days of differentiation but without DPI.
# [1] = RT-PCR normalized to control (atmospheric) EVCs
structure (smiles),measurement,setting,value
"c1ccc2c(c1)[I+]c1ccccc1-2 [DPI, diphenyleneiodonium]",CD31 expression compared to EVCs differentiated in 5% O2 without DPI,,significantly lower
same,VEcad expression compared to EVCs differentiated in 5% O2 without DPI,,significantly lower
same,expression of CD31 compared to control EVCs,[1],lower
same,expression of VEcad compared to control EVCs,[1],similar
